The results in this text go back to patent publication US8299086B2, “Pyrimidine derivatives” (Actelion Pharmaceuticals Ltd., priority 2007, dated 2012).

The structures appear in SMILES notation.

Sequence of recombinant human S1P1 receptor (P21453 whole entry): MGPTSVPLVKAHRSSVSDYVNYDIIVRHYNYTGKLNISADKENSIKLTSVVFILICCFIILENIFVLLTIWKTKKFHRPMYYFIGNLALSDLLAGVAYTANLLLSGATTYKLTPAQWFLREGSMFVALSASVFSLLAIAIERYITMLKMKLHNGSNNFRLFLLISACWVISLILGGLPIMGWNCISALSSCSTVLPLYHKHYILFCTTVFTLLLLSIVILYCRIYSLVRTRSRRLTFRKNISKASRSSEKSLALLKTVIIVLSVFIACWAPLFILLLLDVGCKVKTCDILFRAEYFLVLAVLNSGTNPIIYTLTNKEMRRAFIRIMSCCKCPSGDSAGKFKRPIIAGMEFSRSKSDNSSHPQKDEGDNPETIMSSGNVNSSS

The first assay concerns the target recombinant human S1P1 receptor (Homo sapiens, UniProt P21453). The assay is described as follows: GTPγS assay to determine EC50 values. It counts as biochemical. To be noted: 35S-GTPγS binding, membranes of CHO cells expressing recombinant human S1P1 receptor. As for the experimental part: GTPγS assay to determine EC50 values
GTPγS binding assays are performed in 96 well microtiter plates (Nunc, 442587) in a final volume of 200 μl, using membrane preparations of CHO cells expressing recombinant human S1P1 receptor. Assay conditions are 20 mM Hepes (Fluka, 54461), 100 mM NaCl (Fluka, 71378), 5 mM MgCl2 (Fluka, 63064), 0.1% BSA (Calbiochem, 126609), 1 μM GDP (Sigma, G-7127), 2.5% DMSO (Fluka, 41644), […] ^35S-GTPγS (Amersham Biosciences, SJ1320). The pH is 7.4. Test compounds are dissolved and diluted in 100% DMSO and pre-incubated at room temperature for 30 min in 150 μl of the above assay buffer, in the absence of ^35S-GTPγS. After addition of 50 μl of ^35S-GTPγS, the assay is incubated for 1 h at rt. The assay is terminated by transfer of the reaction mixture to a Multiscreen plate (Millipore, MAHFC1H60) using a cell harvester from Packard Biosciences, and the plates are washed with ice-cold 10 mM Na2HPO4/NaH2PO4 (70%/30%), dried, sealed at the bottom and, after addition of 25 μl MicroScint20 (Packard Biosciences, order#6013621), sealed on the top. Membrane-bound ^35S-GTPγS is measured with a TopCount from Packard Biosciences.
EC50 is the concentration of agonist inducing 50% of the maximal specific ^35S-GTPγS binding. Specific binding is determined by subtracting non-specific binding from maximal binding. Maximal binding is the amount of cpm bound to the Multiscreen plate in the presence of 10 μM of S1P. Non-specific binding is the amount of binding in the absence of an agonist in the assay.
As for `CCN(CC)c1nc(C)cc(-c2nc(-c3ccc(CC(=O)N4CCC[C@H]4C(=O)O)cc3)no2)n1` [Example 132], the EC50 was greater than 10000 nM.

The assay is the same for the next values; noted with them: 35S-GTPγS binding, membranes of CHO cells expressing recombinant human S1P1 receptor, pH 7.4.
Take `CCNc1nc(C)cc(-c2nc(-c3cc(C)c(OC[C@@H](O)CNC(=O)CO)c(CC)c3)no2)n1` [Example 1, N—((S)-3-{2-Ethyl-4-[5-(2-ethylamino-6-methyl-pyrimidin-4-yl)-[1,2,4]oxadiazol-3-yl]-6-methyl-phenoxy}-2-hydroxy-propyl)-2-hydroxy-acetamide]: the EC50 is 1.15 nM.

Take `CCN(CC)c1nc(C)cc(-c2nc(-c3ccc(CCNS(C)(=O)=O)cc3)no2)n1` [Example 128, N-(2-{4-[5-(2-Diethylamino-6-methyl-pyrimidin-4-yl)-[1,2,4]oxadiazol-3-yl]-phenyl}-ethyl)-methanesulfonamide]: the EC50 was 74.4 nM. Consider `CCN(CC)c1nc(C)cc(-c2nc(-c3ccc(CC(=O)N4CC(C(=O)O)C4)cc3)no2)n1` [Example 131], for which the EC50 turned out to be 44.6 nM. `CCc1cc(-c2noc(-c3cc(C)nc(NC(C)C)n3)n2)cc(C)c1CCC(=O)NCCC(=O)O` [Example 134]: the EC50 is 2 nM. `CCc1cc(-c2noc(-c3cc(C)nc(NC(C)C)n3)n2)cc(C)c1CCC(=O)NCC(O)CO` (stereo not drawn) [Example 140]: the EC50 was 12.6 nM. Same read-out and setting: the same measure for `Cc1cc(-c2nc(-c3ccc(CC(O)CNCCO)cc3)no2)nc(NC(C)C)n1` (stereo not drawn) [Example 154]: 331 nM.

The next assay deals with circulating lymphocytes. The assay is described as follows: Assessment of in vivo efficacy: circulating lymphocytes after oral administration. More on the design: species or system Wistar rats. To be noted: Rattus norvegicus, Lymphocyte, po, 6 h, read-out: Lymphocyte counts. As for the experimental part: Assessment of In vivo Efficacy
The efficacy of the compounds of formula (I) is assessed by measuring the circulating lymphocytes after oral administration of 3 to 30 mg/kg of a compound of formula (I) to normotensive male Wistar rats. The animals are housed in climate-controlled conditions with a 12 h-light/dark cycle, and have free access to normal rat chow and drinking water. Blood is collected before and 3, 6 and 24 h after drug administration. Full blood is subjected to hematology using Advia Hematology system (Bayer Diagnostics, Zurich, Switzerland).
All data are presented as mean±SEM. Statistical analyses are performed by analysis of variance (ANOVA) using Statistica (StatSoft) and the Student-Newman-Keuls procedure for multiple comparisons. The null hypothesis is rejected when p<0.05.
In the case of `COc1cc(-c2noc(-c3cc(C)nc(NC(C)C)n3)n2)cc(C)c1OC[C@@H](O)CNC(=O)CO` [Example 51, 2-hydroxy-N—((S)-2-hydroxy-3-{4-[5-(2-isopropylamino-6-methyl-pyrimidin-4-yl)-[1,2,4]oxadiazol-3-yl]-2-methoxy-6-methyl-phenoxy}-propyl)-acetamide], the change in vivo at 10 mg/kg was -61 ± 2%. On to `CCc1cc(-c2noc(-c3cc(C)nc(NC(C)C)n3)n2)cc(C)c1OC[C@@H](O)CO` [Example 59, (S)-3-{2-ethyl-4-[5-(2-isopropylamino-6-methyl-pyrimidin-4-yl)-[1,2,4]oxadiazol-3-yl]-6-methyl-phenoxy}-propane-1,2-diol], for which the change in vivo at 10 mg/kg is -69 ± 2%.

Staying with this assay, now noted: Rattus norvegicus, Lymphocyte; 6 h after oral administration of 10 mg/kg to normotensive male Wistar rats, compared to animals treated with vehicle only; mean±SEM; read-out: Lymphocyte counts.
In the case of `CCN(CC)c1nc(C)cc(-c2nc(-c3cc(C)c(OCC(O)CNC(=O)CO)c(C)c3)no2)n1` (racemic) [Example 10, rac-N-(3-{4-[5-(2-Diethylamino-6-methyl-pyrimidin-4-yl)-[1,2,4]oxadiazol-3-yl]-2,6-dimethyl-phenoxy}-2-hydroxy-propyl)-2-hydroxy-acetamide], the change in vivo at 10 mg/kg is -50 ± 2%. For `CCNc1nc(C)cc(-c2nc(-c3cc(C)c(OCC(O)CO)c(C)c3)no2)n1` (racemic) [Example 16, rac-3-{4-[5-(2-Ethylamino-6-methyl-pyrimidin-4-yl)-[1,2,4]oxadiazol-3-yl]-2,6-dimethyl-phenoxy}-propane-1,2-diol], the change in vivo at 10 mg/kg is -74 ± 1%. For `Cc1cc(-c2nc(-c3cc(C)c(OCC(O)CO)c(C)c3)no2)nc(NCC(C)C)n1` (racemic) [Example 20, rac-3-{4-[5-(2-Isobutylamino-6-methyl-pyrimidin-4-yl)-[1,2,4]oxadiazol-3-yl]-2,6-dimethyl-phenoxy}-propane-1,2-diol], the change in vivo at 10 mg/kg is -55 ± 1%. Turning to `CCNc1nc(C)cc(-c2nc(-c3cc(C)c(OC[C@@H](O)CNC(=O)CO)c(CC)c3)no2)n1` [Example 1, N—((S)-3-{2-Ethyl-4-[5-(2-ethylamino-6-methyl-pyrimidin-4-yl)-[1,2,4]oxadiazol-3-yl]-6-methyl-phenoxy}-2-hydroxy-propyl)-2-hydroxy-acetamide], the change in vivo at 10 mg/kg is -70 ± 3%. As for `CCc1cc(-c2noc(-c3cc(C)nc(N(CC)CC)n3)n2)cc(C)c1OC[C@@H](O)CNC(=O)CO` [Example 3, N—((S)-3-{4-[5-(2-Diethylamino-6-methyl-pyrimidin-4-yl)-[1,2,4]oxadiazol-3-yl]-2-ethyl-6-methyl-phenoxy}-2-hydroxy-propyl)-2-hydroxy-acetamide], the change in vivo at 10 mg/kg is -70 ± 2%. On to `CCc1cc(-c2noc(-c3cc(C)nc(N(C)CC(C)C)n3)n2)cc(C)c1OC[C@@H](O)CNC(=O)CO` [Example 29, N—[(S)-3-(2-ethyl-4-{5-[2-(isobutyl-methyl-amino)-6-methyl-pyrimidin-4-yl]-[1,2,4]oxadiazol-3-yl}-6-methyl-phenoxy)-2-hydroxy-propyl]-2-hydroxy-acetamide], for which the change in vivo at 10 mg/kg is -73 ± 2%. Take `CCc1cc(-c2noc(-c3cc(C)nc(NCC4CC4)n3)n2)cc(C)c1OC[C@@H](O)CNC(=O)CO` [Example 32, N—[(S)-3-(4-{5-[2-(cyclopropylmethyl-amino)-6-methyl-pyrimidin-4-yl]-[1,2,4]oxadiazol-3-yl}-2-ethyl-6-methyl-phenoxy)-2-hydroxy-propyl]-2-hydroxy-acetamide]: the change in vivo at 10 mg/kg was -58 ± 1%. Take `CCNc1nc(CC)cc(-c2nc(-c3cc(C)c(OC[C@@H](O)CNC(=O)CO)c(CC)c3)no2)n1` [Example 33, N—((S)-3-{2-ethyl-4-[5-(6-ethyl-2-ethylamino-pyrimidin-4-yl)-[1,2,4]oxadiazol-3-yl]-6-methyl-phenoxy}-2-hydroxy-propyl)-2-hydroxy-acetamide]: the change in vivo at 10 mg/kg was -65 ± 2%. On to `CCc1cc(-c2noc(-c3cc(C)nc(OCC(C)C)n3)n2)cc(C)c1OC[C@@H](O)CNC(=O)CO` [Example 40, N—((S)-3-{2-ethyl-4-[5-(2-isobutoxy-6-methyl-pyrimidin-4-yl)-[1,2,4]oxadiazol-3-yl]-6-methyl-phenoxy}-2-hydroxy-propyl)-2-hydroxy-acetamide], for which the change in vivo at 10 mg/kg was -69 ± 2%. Same read-out and setting: the same measure for `CCNc1nc(CC)cc(-c2nc(-c3cc(C)c(OC[C@@H](O)CO)c(CC)c3)no2)n1` [Example 65, (S)-3-{2-ethyl-4-[5-(6-ethyl-2-ethylamino-pyrimidin-4-yl)-[1,2,4]oxadiazol-3-yl]-6-methyl-phenoxy}-propane-1,2-diol]: -60 ± 4%; for `CCc1cc(-c2nc(-c3cc(C)nc(NC(C)C)n3)no2)cc(C)c1OC[C@@H](O)CNC(=O)CO` [Example 85, (S)—N-(3-{2-Ethyl-4-[3-(2-isopropylamino-6-methyl-pyrimidin-4-yl)-[1,2,4]oxadiazol-5-yl]-6-methyl-phenoxy}-2-hydroxy-propyl)-2-hydroxy-acetamide]: -68 ± 1%; for `CCc1cc(-c2noc(-c3cc(C)nc(NC(C)C)n3)n2)cc(C)c1CCC(=O)NCCO` [Example 138, 3-{2-ethyl-4-[5-(2-isopropylamino-6-methyl-pyrimidin-4-yl)-[1,2,4]oxadiazol-3-yl]-6-methyl-phenyl}-N-(2-hydroxy-ethyl)-propionamide]: -74 ± 1%.

A word on the EC50: it is the concentration that produces a half-maximal response.
